Experimental data as given in patent publication US4960775A, “Pyrrolophthalazines” (May & Baker Limited, priority 1987, dated 1990).

Target: T1, rat hepatic microsomal HMG CoA reductase (Rattus norvegicus, UniProt P51639)
T1 construct: rat hepatic microsomal HMG CoA reductase activity in vitro; from tissue; host or cells: rat liver microsomes
T1 sequence (P51639 1-887): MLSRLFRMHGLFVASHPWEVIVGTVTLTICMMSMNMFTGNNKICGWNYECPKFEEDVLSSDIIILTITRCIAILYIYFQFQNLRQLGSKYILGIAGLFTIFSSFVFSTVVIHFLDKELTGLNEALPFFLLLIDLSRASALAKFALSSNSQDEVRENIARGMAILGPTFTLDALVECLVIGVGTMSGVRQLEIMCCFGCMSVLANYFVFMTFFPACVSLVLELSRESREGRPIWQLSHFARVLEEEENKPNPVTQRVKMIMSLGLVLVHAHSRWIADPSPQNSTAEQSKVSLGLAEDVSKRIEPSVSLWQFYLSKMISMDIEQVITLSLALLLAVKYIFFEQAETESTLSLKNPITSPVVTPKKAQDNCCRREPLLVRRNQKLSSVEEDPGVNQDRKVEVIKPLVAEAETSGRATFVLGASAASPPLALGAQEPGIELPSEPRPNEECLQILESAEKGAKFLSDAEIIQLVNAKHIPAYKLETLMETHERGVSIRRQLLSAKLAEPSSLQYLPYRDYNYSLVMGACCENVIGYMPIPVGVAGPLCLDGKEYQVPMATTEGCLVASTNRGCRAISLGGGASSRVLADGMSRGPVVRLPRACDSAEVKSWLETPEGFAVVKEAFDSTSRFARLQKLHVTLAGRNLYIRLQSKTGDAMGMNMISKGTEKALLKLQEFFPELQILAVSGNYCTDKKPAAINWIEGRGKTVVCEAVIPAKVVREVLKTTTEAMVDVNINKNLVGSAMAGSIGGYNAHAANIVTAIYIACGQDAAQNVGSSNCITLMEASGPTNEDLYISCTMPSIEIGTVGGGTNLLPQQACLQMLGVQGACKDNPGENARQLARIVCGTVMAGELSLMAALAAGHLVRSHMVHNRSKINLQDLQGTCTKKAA
Assay: inhibition of rat hepatic microsomal HMG CoA reductase activity in vitro
Assay type: biochemical
Conditions: for inhibition at 0.027 µg/mL: 0.027 micrograms/ml; for inhibition at 0.082 µg/mL: 0.082 micrograms/ml; for inhibition at 0.25 µg/mL: 0.25 micrograms/ml; for inhibition at 0.74 µg/mL: 0.74 micrograms/ml; for inhibition at 2.22 µg/mL: 2.22 micrograms/ml; for inhibition at 6.67 µg/mL: 6.67 micrograms/ml; for inhibition at 0.24 µg/mL: 0.24 micrograms/ml; for inhibition at 6.66 µg/mL: 6.66 micrograms/ml; for inhibition at 20 µg/mL: 20.0 micrograms/ml
From the text: In the table the concentrations of the test compounds are expressed in micrograms/ml.

Compound	inhibition at 0.027 µg/mL [%]	inhibition at 0.082 µg/mL [%]	inhibition at 0.25 µg/mL [%]	inhibition at 0.74 µg/mL [%]	inhibition at 2.22 µg/mL [%]	inhibition at 6.67 µg/mL [%]	inhibition at 0.24 µg/mL [%]	inhibition at 6.66 µg/mL [%]	inhibition at 20 µg/mL [%]	inhibition at 0.27 µg/mL (0.27 micrograms/ml (so in the source)) [%]
CC(C)c1c(/C=C/C(O)CC(O)CC(=O)O)c(-c2ccc(F)cc2)c2c3ccccc3cnn12 (stereo not drawn) [Compound D, sodium (E)-7-{1-(4-fluorophenyl)-3-isopropylpyrrolo[2,1-a]-phthalazin-2-yl)-3,5-dihydroxyhept-6-enoate]	47	50	61	66	76	90	–	–	–	–
CC(C)c1c(/C=C/[C@@H](O)C[C@@H](O)CC(=O)O)c(-c2ccc(F)cc2)c2c3ccccc3cnn12 (relative stereo) [Compound DA, sodium erythro-(E)-7-{1-(4-fluorophenyl)-3-isopropylpyrrolo[2,1-a]phthalazin-2-yl}-3,5-dihydroxyhept-6-enoate]	49	58	–	86	94	–	72	98	–	–
CC(C)c1c(/C=C/C(=O)CC(O)CC(=O)O)c(-c2ccc(F)cc2)c2c3ccccc3cnn12 (stereo not drawn) [Compound G, sodium (E)-7-{1-(4-fluorophenyl)-3-isopropylpyrrolo[2,1-a]phthalazin-2-yl)-3-hydroxy-5-oxohept-6-enoate]	–	–	–	29	52	–	–	77	92	–
CC(C)c1c(/C=C/C(O)CC(O)CC(=O)O)c(-c2ccccc2)c2c3ccccc3cnn12 (stereo not drawn) [Compound B, sodium (E)-3,5-dihydroxy-7-(3-isopropyl-1-phenylpyrrolo[2,1-a]phthalazin-2-yl)-hept-6-enoate]	–	–	38	56	74	90	–	–	98	–
CCOC(=O)C[C@H](O)C[C@H](O)/C=C/c1c(-c2ccc(F)cc2)c2c3ccccc3cnn2c1C(C)C (relative stereo) [CA, ethyl erythro-(E)-7-{1-(4-fluorophenyl)-3-isopropylpyrrolo[2,1-a]phthalazin-2-yl)-3,5-dihydroxyhept-6-enoate]	23	33	–	65	85	–	47	95	–	–
CC(C)c1c(/C=C/[C@@H](O)C[C@H](O)CC(=O)O)c(-c2ccc(F)cc2)c2c3ccccc3cnn12 (relative stereo) [Compound DB, sodium threo-(E)-7-{1-(4-fluorophenyl)-3-isopropylpyrrolo[2,1-a]-phthalazin-2-yl}-3,5-dihydroxyhept-6-enoate]	–	34	–	52	67	–	45	85	–	29
